Values of other authors as cited in US11318093B2, “Dental topical anesthetic gel” (Pac-Dent, Inc., priority 2019, dated 2022).

How the values were obtained:
[1] = test system: MCP-2 chemokine and other proinflammatory cytokines; details: Petrosino et al. 2018; in vitro ACD model; inhibition of MCP-2 chemokine and proinflammatory cytokine production
[2] = test system: methicillin-resistant Staphylococcus aureus strains (MRSA); details: European research; strains resistant to several classes of drugs
[3] = in vivo
[4] = Evans 1991
[5] = test system: cyclooxygenase (COX)

Question: With `C=C(C)[C@@H]1CCC(C)=C[C@H]1c1c(O)cc(CCC)cc1O` [CBDV, cannabidivarin] as the compound, how does the anti-inflammatory properties [1] read?
Answer: Its anti-inflammatory properties is “some anti-inflammatory benefits”.

Question: Which results are given for `CCCCCc1cc(O)c(C/C=C(\C)CCC=C(C)C)c(O)c1` [CBG, cannabigerol]?
Answer: anti-inflammatory properties [1]: some anti-inflammatory benefits; antibacterial agent against MRSA [2]: effective antibacterial agent

Question: Which results are given for `CCCCCc1cc(O)c2c(c1)OC(C)(CCC=C(C)C)C=C2` (stereo not drawn) [CBC, cannabichromene]?
Answer: anti-inflammatory properties [1]: some anti-inflammatory benefits; pain and inflammation associated with collagen-induced osteoarthritis [3]: block pain and inflammation

Question: Which “anti-inflammatory potency relative to aspirin” value [4] does the source give for `CCCCCc1cc(O)c2c(c1)OC(C)(C)[C@@H]1CCC(C)=C[C@@H]21` [THC, tetrahydrocannabinol] here?
Answer: Its value is “twenty times that of aspirin”.

Question: And the “anti-inflammatory potency relative to hydrocortisone” value [4]?
Answer: The value was “twice that of hydrocortisone”.

Question: What about the “cyclooxygenase (COX) inhibition” value [5] of the same compound?
Answer: Its value is “without any cyclooxygenase (COX) inhibition”.

Question: For `C=C(C)[C@@H]1CCC(C)=C[C@H]1c1c(O)cc(CCCCC)cc1O` [CBD, cannabidiol], which anti-inflammatory properties [1] is on record?
Answer: The anti-inflammatory properties was “potent anti-inflammatory properties”.
